Measurements reported in patent US20050065185A1, “Heterocyclylalkoxy-, -alkylthio- and -alkylaminobenzazole derivatives as 5-hydroxytryptamine-6 ligands” (Wyeth, priority 2001, published 2005).
Structures can show the parent of a compound that is named as a salt.

Molecular target: T1, human cloned 5-HT6 receptors (Homo sapiens, UniProt P50406)
T1 construct: expressed in transfected cells; host or cells: HeLa cells
Assay: 5-HT6 binding affinity, [3H]-LSD displacement on membranes of Hela cells expressing human cloned 5-HT6 receptors
Protocol: The affinity of test compounds for the serotonin 5-HT6 receptor is evaluated in the following manner. Cultured Hela cells expressing human cloned 5-HT6 receptors are harvested and centrifuged at low speed (1,000×g) for 10.0 min to remove the culture media. The harvested cells are suspended in half volume of fresh physiological phosphate buffered saline solution and recentrifuged at the same speed. This operation is repeated. The collected cells are then homogenized in ten volumes of 50 mM Tris.HCl (pH 7.4) and 0.5 mM EDTA. The homogenate is centrifuged at 40,000×g for 30.0 min and the precipitate is collected. The obtained pellet is resuspended in 10 volumes of Tris.HCl buffer and recentrifuged at the same speed. The final pellet is suspended in a small volume of Tris.HCl buffer and the tissue protein content is determined in aliquots of 10-25 μl volumes. Bovine Serum Albumin is used as the standard in the protein determination according to the method described in Lowry et al., J. Biol. Chem., 193:265 (1951). The volume of the suspended cell membranes is adjusted to give a tissue protein concentration of 1.0 mg/ml of suspension. The prepared membrane suspension (10 times concentrated) is aliquoted in 1.0 ml volumes and stored at −70° C. until used in subsequent binding experiments.
The reaction is allowed to proceed in the dark for 120 min at room temperature, at which time, the bound ligand-receptor complex is filtered off on a 96 well unifilter with a Packard Filtermate® 196 Harvester. The bound complex caught on the filter disk is allowed to air dry and the radioactivity is measured in a Packard TopCount® equipped with six photomultiplier detectors, after the addition of 40.0 μl Microscint®-20 scintillant to each shallow well. The unifilter plate is heat-sealed and counted in a PackardTopCount® with a tritium efficiency of 31.0%.
Binding in the presence of varying concentrations of test compound is expressed as a percentage of specific binding in the absence of test compound. The results are plotted as log % bound versus log concentration of test compound. […] A linear regression line of data points is plotted, from which the IC50 value is determined and the Ki value is determined based upon the following equation: Ki=IC50/(1+L/KD) where L is the concentration of the radioactive ligand used and KD is the dissociation constant of the ligand for the receptor, both expressed in nM.

T1 sequence (P50406 whole entry): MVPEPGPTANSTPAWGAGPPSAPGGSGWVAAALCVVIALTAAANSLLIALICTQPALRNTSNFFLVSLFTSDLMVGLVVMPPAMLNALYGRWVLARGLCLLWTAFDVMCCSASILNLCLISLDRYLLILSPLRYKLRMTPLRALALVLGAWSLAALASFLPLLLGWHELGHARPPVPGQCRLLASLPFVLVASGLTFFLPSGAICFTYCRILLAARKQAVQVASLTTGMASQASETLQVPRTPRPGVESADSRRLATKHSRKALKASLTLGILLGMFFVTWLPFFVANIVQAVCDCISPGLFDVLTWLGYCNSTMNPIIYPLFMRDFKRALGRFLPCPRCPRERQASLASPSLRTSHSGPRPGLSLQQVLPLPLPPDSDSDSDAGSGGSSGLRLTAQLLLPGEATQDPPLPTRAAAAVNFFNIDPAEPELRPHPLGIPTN

Going from `O=S(=O)(c1ccccc1)n1ccc2c(OC[C@@H]3CCCN3)cccc21` [Example 3, 1-(Phenylsulfonyl)-4-[(2S)-pyrrolidin-2-ylmethoxy]-1H-indole hydrochloride] to `O=S(=O)(c1ccccc1)n1ccc2c(OC[C@H]3CCCN3)cccc21` [Example 11, 1-(Phenylsulfonyl)-4-[(2R)-]pyrrolidin-2-ylmethoxy]-1H-indole hydrochloride], the Ki rises from 6 nM to 106 nM (18-fold). The first binds more tightly here.

`O=S(=O)(c1ccc(Cl)s1)n1ccc2c(OC[C@@H]3CCCN3)cccc21` [Example 4, 1-[(5-chlorothien-2-yl)sulfonyl]-4-[(2S)-pyrrolidin-2-ylmethoxy]-1H-indole] and `O=S(=O)(c1ccc(Cl)s1)n1ncc2c(OC[C@@H]3CCCN3)cccc21` [Example 19, 1-[(5-chlorothien-2-yl)sulfonyl]-4-[(2S)-pyrrolidin-2-ylmethoxy]-1H-indazole] are within 1.5-fold of each other in Ki: 7 nM for the first, 5 nM for the second.

Going from `O=S(=O)(c1ccccc1F)n1ccc2c(OC[C@@H]3CCCN3)cccc21` [Example 5, 1-[(2-fluorophenyl)sulfonyl)-4-[(2S)-pyrrolidin-2-ylmethoxy]-1H-indole] to `O=S(=O)(c1cccc(F)c1)n1ccc2c(OC[C@@H]3CCCN3)cccc21` [Example 6, 1-[(3-fluorophenyl)sulfonyl)-4-[(2S)-pyrrolidin-2-ylmethoxy]-1H-indole], the Ki rises from 2 nM to 8 nM (4-fold). The first binds more tightly here.

First: O=S(=O)(c1ccc(F)cc1)n1ccc2c(OC[C@@H]3CCCN3)cccc21 [Example 7, 1-[(4-fluorophenyl)sulfonyl)-4-[(2S)-pyrrolidin-2-ylmethoxy]-1H-indole]
Second: Nc1ccc(S(=O)(=O)n2ccc3c(OC[C@@H]4CCCN4)cccc32)cc1 [Example 9]
The Ki of the first is 31-fold higher: 31 nM for the first, 1 nM for the second. The second binds more tightly here.

Going from `COc1ccc(S(=O)(=O)n2ccc3c(OC[C@@H]4CCCN4)cccc32)cc1OC` [Example 8, 1-[(3,4-dimethoxyphenyl)sulfonyl)-4-[(2S)-pyrrolidin-2-ylmethoxy]-1H-indole] to `Nc1ccc(S(=O)(=O)n2ncc3c(OC[C@@H]4CCCN4)cccc32)cc1Cl` [Example 21, 2-chloro-4-({4-[(2S)-pyrrolidin-2-ylmethoxy]-1H-indazol-1-yl}sulfonyl)aniline], the Ki falls from 95 nM to 16 nM (5.9-fold). The second binds more tightly here.

`O=S(=O)(c1ccccc1)n1ncc2c(OC[C@@H]3CCCN3)cccc21` [Example 15, 1-(Phenylsulfonyl)-4-[(2S)-pyrrolidin-2-ylmethoxy]-1H-indazole trifluoroacetic acid salt] and `O=S(=O)(c1ccccc1Cl)n1ncc2c(OC[C@@H]3CCCN3)cccc21` [Example 17, 1-[(2-chlorophenyl)sulfonyl]-4-[(2S)-pyrrolidin-2-ylmethoxy]-1H-indazole] are within 1.5-fold of each other in Ki: 7 nM for the first, 5 nM for the second.

Compared with `O=S(=O)(c1cccc2cccnc12)n1ncc2c(OC[C@@H]3CCCN3)cccc21` [Example 16, 8-({4-[(2S)-pyrrolidin-2-ylmethoxy]-1H-indazol-1-yl}sulfonyl)quinoline], `O=S(=O)(c1ccccc1F)n1ncc2c(OC[C@@H]3CCCN3)cccc21` [Example 18, 1-[(2-fluorophenyl)sulfonyl]-4-[(2S)-pyrrolidin-2-ylmethoxy]-1H-indazole] is 11-fold lower in Ki: 85 nM for the first, 8 nM for the second. The second binds more tightly here.

Work on `Nc1ccc(S(=O)(=O)n2ncc3c(OC[C@@H]4CCCN4)cccc32)cc1` [Example 20, 4-({4-[(2S)-pyrrolidin-2-ylmethoxy}-1H-indazol-1-yl}sulfonyl)aniline] yielded a Ki of 9 nM.

Test system: not given
Assay: not given

First: O=S(=O)(c1ccc(Cl)s1)n1ccc2c(OC[C@@H]3CCCN3)cccc21 (as salt: hydrochloride) [Example 4, 1-[(5-chlorothien-2-yl)sulfonyl]-4-[(2S)-pyrrolidin-2-ylmethoxy]-1H-indole]
Second: O=S(=O)(c1ccc(Cl)s1)n1ncc2c(OC[C@@H]3CCCN3)cccc21 (as salt: hydrochloride) [Example 19, 1-[(5-chlorothien-2-yl)sulfonyl]-4-[(2S)-pyrrolidin-2-ylmethoxy]-1H-indazole]
The melting point of the first is higher: 204 to 206 °C for the first, 195 °C for the second.

First: O=S(=O)(c1ccccc1F)n1ccc2c(OC[C@@H]3CCCN3)cccc21 (as salt: hydrochloride) [Example 5, 1-[(2-fluorophenyl)sulfonyl)-4-[(2S)-pyrrolidin-2-ylmethoxy]-1H-indole]
Second: O=S(=O)(c1cccc(F)c1)n1ccc2c(OC[C@@H]3CCCN3)cccc21 (as salt: hydrochloride) [Example 6, 1-[(3-fluorophenyl)sulfonyl)-4-[(2S)-pyrrolidin-2-ylmethoxy]-1H-indole]
The melting point of the first is lower: 153 to 155 °C for the first, 160 to 162 °C for the second.

First: O=S(=O)(c1ccccc1F)n1ncc2c(OC[C@@H]3CCCN3)cccc21 (as salt: hydrochloride) [Example 18, 1-[(2-fluorophenyl)sulfonyl]-4-[(2S)-pyrrolidin-2-ylmethoxy]-1H-indazole]
Second: O=S(=O)(c1cccc2cccnc12)n1ncc2c(OC[C@@H]3CCCN3)cccc21 [Example 16, 8-({4-[(2S)-pyrrolidin-2-ylmethoxy]-1H-indazol-1-yl}sulfonyl)quinoline]
The melting point of the first is lower: 145 to 148 °C for the first, 217 to 218 °C for the second.

In the case of `Nc1ccc(S(=O)(=O)n2ncc3c(OC[C@@H]4CCCN4)cccc32)cc1` (as salt: hydrochloride) [Example 20, 4-({4-[(2S)-pyrrolidin-2-ylmethoxy}-1H-indazol-1-yl}sulfonyl)aniline], the melting point is reported as 150 to 155 °C.

With `O=S(=O)(c1ccc(F)cc1)n1ccc2c(OC[C@@H]3CCCN3)cccc21` (as salt: hydrochloride) [Example 7, 1-[(4-fluorophenyl)sulfonyl)-4-[(2S)-pyrrolidin-2-ylmethoxy]-1H-indole] the melting point was 258 °C (dec.).
With `COc1ccc(S(=O)(=O)n2ccc3c(OC[C@@H]4CCCN4)cccc32)cc1OC` (as salt: hydrochloride) [Example 8, 1-[(3,4-dimethoxyphenyl)sulfonyl)-4-[(2S)-pyrrolidin-2-ylmethoxy]-1H-indole] the melting point was 115 °C (dec.).
For `Nc1ccc(S(=O)(=O)n2ccc3c(OC[C@@H]4CCCN4)cccc32)cc1` (as salt: hydrochloride) [Example 9], the melting point was 150 °C (dec.).
In the case of `O=S(=O)(c1ccccc1Cl)n1ncc2c(OC[C@@H]3CCCN3)cccc21` (as salt: hydrochloride) [Example 17, 1-[(2-chlorophenyl)sulfonyl]-4-[(2S)-pyrrolidin-2-ylmethoxy]-1H-indazole], the melting point is reported as > 255 °C (dec.).
For `Nc1ccc(S(=O)(=O)n2ncc3c(OC[C@@H]4CCCN4)cccc32)cc1Cl` (as salt: hydrochloride) [Example 21, 2-chloro-4-({4-[(2S)-pyrrolidin-2-ylmethoxy]-1H-indazol-1-yl}sulfonyl)aniline], the melting point was 220 °C (dec.).
